Experiments:
Format in all cases: biochemical
human GST-CLK1 = target: T1, human GST-CLK1 (Homo sapiens, UniProt P49759); assay: GST-CLK1 enzyme inhibition, ADP-Glo kinase assay; details: ATP 10 μM, GST-CLK1 129-end
T1 construct: purified human GST-CLK1 (129-end, SignalChem) enzyme; purchased SignalChem
How it was run: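 ADP-Glo luminescence read-out, relative to untreated solvent control, gave IC50 (nM) from triplicate data sets. Reactions ran an hour at 25° C with 3 ng GST-CLK1 (residues 129-end), 10 μM ATP and specific substrate in Tris-HCl pH 7.4 buffer with MgCl2, BSA and DTT.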

LRRK2 (G2019S) = LRRK2 (G2019S) (Homo sapiens, UniProt Q5S007, G2019S); assay: LRRK2 G2019S enzyme inhibition, ADP-Glo kinase assay; parameters: purchased SignalChem L10-12GG; details: ATP 25 μM
LRRK2 (G2019S), sequence (Q5S007 970-2527 G2019S limits assumed): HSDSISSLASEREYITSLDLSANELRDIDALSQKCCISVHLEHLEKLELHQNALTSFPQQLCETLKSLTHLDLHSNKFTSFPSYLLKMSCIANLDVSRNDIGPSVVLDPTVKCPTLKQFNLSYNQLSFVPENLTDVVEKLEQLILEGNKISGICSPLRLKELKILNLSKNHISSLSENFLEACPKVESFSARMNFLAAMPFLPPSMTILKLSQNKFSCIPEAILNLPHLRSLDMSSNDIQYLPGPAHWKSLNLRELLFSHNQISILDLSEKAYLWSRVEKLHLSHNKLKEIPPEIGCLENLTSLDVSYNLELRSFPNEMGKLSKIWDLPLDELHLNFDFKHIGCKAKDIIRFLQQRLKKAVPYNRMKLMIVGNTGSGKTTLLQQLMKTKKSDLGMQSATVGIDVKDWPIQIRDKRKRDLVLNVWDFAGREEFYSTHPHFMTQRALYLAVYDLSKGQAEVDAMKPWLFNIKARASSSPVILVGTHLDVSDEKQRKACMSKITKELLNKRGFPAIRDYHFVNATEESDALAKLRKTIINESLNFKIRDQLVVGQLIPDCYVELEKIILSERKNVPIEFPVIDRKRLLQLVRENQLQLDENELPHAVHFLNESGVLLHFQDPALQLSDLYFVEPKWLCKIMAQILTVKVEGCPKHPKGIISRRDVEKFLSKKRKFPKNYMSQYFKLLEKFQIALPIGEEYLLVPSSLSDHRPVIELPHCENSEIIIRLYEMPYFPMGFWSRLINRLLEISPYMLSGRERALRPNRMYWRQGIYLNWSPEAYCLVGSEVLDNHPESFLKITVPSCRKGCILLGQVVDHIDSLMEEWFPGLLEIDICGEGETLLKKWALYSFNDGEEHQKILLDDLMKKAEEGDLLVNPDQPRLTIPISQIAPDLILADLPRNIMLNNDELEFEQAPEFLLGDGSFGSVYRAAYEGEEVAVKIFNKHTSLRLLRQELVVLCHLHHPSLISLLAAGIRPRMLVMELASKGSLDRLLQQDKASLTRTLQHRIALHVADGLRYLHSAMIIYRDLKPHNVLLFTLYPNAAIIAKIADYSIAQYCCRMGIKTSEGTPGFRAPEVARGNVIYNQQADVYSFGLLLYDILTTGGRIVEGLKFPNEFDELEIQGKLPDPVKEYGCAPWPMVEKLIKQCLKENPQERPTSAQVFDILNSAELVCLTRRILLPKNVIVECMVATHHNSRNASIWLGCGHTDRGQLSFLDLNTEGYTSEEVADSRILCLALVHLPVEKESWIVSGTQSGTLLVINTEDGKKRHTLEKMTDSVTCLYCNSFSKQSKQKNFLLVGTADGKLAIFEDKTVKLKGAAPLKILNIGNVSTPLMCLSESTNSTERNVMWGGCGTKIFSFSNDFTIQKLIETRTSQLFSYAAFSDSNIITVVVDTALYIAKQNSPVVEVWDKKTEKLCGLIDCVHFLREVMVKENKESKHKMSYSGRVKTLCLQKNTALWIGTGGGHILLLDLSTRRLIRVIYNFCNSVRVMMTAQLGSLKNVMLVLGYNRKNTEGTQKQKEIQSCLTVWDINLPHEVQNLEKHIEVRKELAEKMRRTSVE
How it was run: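 IC50 derived from luminescent ADP-Glo readout against untreated solvent control, twelve final compound concentrations from 50 μM downward. Reaction: recombinant human LRRK2 G2019S enzyme, 25 μM ATP, substrate, pH 7.4 Tris buffer with MgCl2/BSA/DTT, 25° C. for 2 hours.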

human GST-DYRK1A = target: T2, human GST-DYRK1A (Homo sapiens, UniProt Q13627); assay: GST-DYRK1A enzyme inhibition, ADP-Glo kinase assay; details: ATP 10 μM, GST-DYRK1A full length, read-out: DYRK1 IC50
T2 construct: purified human GST-DYRK1A (full length, Thermo Scientifics) enzyme; purchased Thermo Scientifics
How it was run: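 Full-length enzyme (10 ng) was incubated with 10 μM ATP and a specific substrate for 1 h at 25 °C in 40 mM Tris-HCl pH 7.4, 20 mM MgCl2, 0.5 mg/mL BSA, 50 μM DTT. Luminescence was read against a solvent control, and IC50 values were derived from 3 data sets.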

T1 sequence (P49759 129-484 limits assumed): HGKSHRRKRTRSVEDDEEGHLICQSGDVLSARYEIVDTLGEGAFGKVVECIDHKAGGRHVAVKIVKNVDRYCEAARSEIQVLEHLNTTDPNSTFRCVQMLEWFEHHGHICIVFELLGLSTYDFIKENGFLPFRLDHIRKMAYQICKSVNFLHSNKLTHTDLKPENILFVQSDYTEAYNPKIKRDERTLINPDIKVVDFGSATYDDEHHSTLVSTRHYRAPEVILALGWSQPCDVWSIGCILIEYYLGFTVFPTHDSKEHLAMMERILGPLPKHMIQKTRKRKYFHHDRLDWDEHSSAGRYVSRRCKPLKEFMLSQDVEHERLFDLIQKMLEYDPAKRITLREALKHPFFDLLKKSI

SMILES	IC50 (human GST-CLK1)	IC50 (LRRK2 (G2019S))	IC50 (human GST-DYRK1A)
COc1cc(P(C)(C)=O)ccc1Nc1nc(N[C@@H]2CCOC2)c2c(C(F)(F)F)c[nH]c2n1 [Example 388, (R)-(3-methoxy-4-((4-((tetrahydrofuran-3-yl)amino)-5-(trifluoromethyl)-7H-pyrrolo[2,3-d]pyrimidin-2-yl)amino)phenyl)di-methylphosphine oxide]	< 100 nM	< 100 nM	< 100 nM
COc1cc(P2(=O)CCN(C3CC3)CC2)ccc1Nc1nc(NCCS(C)(=O)=O)c2c(C(F)(F)F)c[nH]c2n1 [Example 426, 1-cyclopropyl-4-(3-methoxy-4-((4-((2-(methyl-sulfonyl)eth-yl)amino)-5-(trifluoromethyl)-7H-pyrrolo[2,3-d]pyrimidin-2-yl)amino)phenyl)-1,4-azaphosphinane 4-oxide]	< 100 nM	< 100 nM	< 100 nM
N#Cc1c[nH]c2nc(Nc3ccc(C(=O)N4CCOCC4)c4c3OCCO4)nc(NC3CCCCC3)c12 [Example 248]	301 to 1000 nM	< 100 nM	301 to 1000 nM
COc1cc(P2(=O)CCN(C3CC3)CC2)ccc1Nc1nc(NCC2CCC2)c2c(C(F)(F)F)c[nH]c2n1 [Example 423, 4-(4-((4-((cyclobutyl-methyl)amino)-5-(trifluoromethyl)-7H-pyrrolo[2,3-d]pyrimidin-2-yl)amino)-3-methoxyphenyl)-1-cyclopropyl-1,4-aza-phosphinane 4-oxide]	301 to 1000 nM	< 100 nM	301 to 1000 nM
CCCCNc1nc(Nc2ccc(P3(=O)CCN(C4CC4)CC3)cc2OC)nc2[nH]cc(C(F)(F)F)c12 [Example 428, 4-(4-((4-(butylamino)-5-(trifluoromethyl)-7H-pyrrolo[2,3-d]pyrimidin-2-yl)amino)-3-methoxyphenyl)-1-cyclopropyl-1,4-azaphosphinane 4-oxide]	301 to 1000 nM	< 100 nM	301 to 1000 nM
O=C(c1ccc(Nc2nc(NC3CCOCC3)c3c(C(F)(F)F)c[nH]c3n2)c2c1CCO2)N1CCOCC1 [Example 456, morpholino(7-((4-((tetrahydro-2H-pyran-4-yl)amino)-5-(trifluoromethyl)-7H-pyrrolo[2,3-d]pyrimidin-2-yl)amino)-2,3-dihydrobenzo-furan-4-yl)methanone]	< 100 nM	< 100 nM	301 to 1000 nM
COc1cc(P2(=O)CCN(C3CC3)CC2)ccc1Nc1nc(NC2CCC2)c2c(C(F)(F)F)c[nH]c2n1 [Example 406]	101 to 300 nM	101 to 300 nM	301 to 1000 nM
CC[C@@H](C)Nc1nc(Nc2ccc(C(=O)N3CCOCC3)c3c2OCC3)nc2[nH]cc(C#N)c12 [Example 354, (R)-4-(sec-butylamino)-2-((4-(morpholine-4-carbonyl)-2,3-dihydrobenzo-furan-yl)amino)-7H-pyrrolo[2,3-d]pyrimidine-5-carbonitrile]	< 100 nM	< 100 nM	301 to 1000 nM
CNc1nc(Nc2ccc(P3(=O)CCN(C4CC4)CC3)cc2OC)nc2[nH]cc(C(F)(F)F)c12 [Example 216, 1-cyclopropyl-4-(3-methoxy-4-((4-(methylamino)-5-(trifluoromethyl)-7H-pyrrolo[2,3-d]pyrimidin-2-y)amino)phenyl)-1,4-azaphosphinane 4-oxide]	101 to 300 nM	< 100 nM	101 to 300 nM
O=C(c1ccc(Nc2nc(NCC3CCC3)c3c(C(F)(F)F)c[nH]c3n2)c2c1CCO2)N1CCOCC1 [Example 458, (7-((4-((cyclo-butylmethyl)amino)-5-(trifluoromethyl)-7H-pyrrolo[2,3-d]pyrimidin-2-yl)amino)-2,3-dihydrobenzo-furan-4-yl) (morpholino) methanone]	301 to 1000 nM	< 100 nM	301 to 1000 nM
CC[C@H](C)Nc1nc(Nc2ccc(C(=O)N3CCOCC3)c3c2OCCO3)nc2[nH]cc(C(F)(F)F)c12 [Example 381, (S)-(8-((4-(sec-butylamino)-5-(trifluoromethyl)-7H-pyrrolo[2,3-d]pyrimidin-2-yl)amino)-2,3-dihydrobenzo[b] [1,4]dioxin-5-yl)(morpholino) methanone]	301 to 1000 nM	< 100 nM	301 to 1000 nM
O=C(c1ccc(Nc2nc(NC3CCCC3)c3cc[nH]c3n2)c2c1OCCO2)N1CCOCC1 [Example 48, (8-((4-(cyclopentylamino)-7H-pyrrolo[2,3-d]pyrimidin-2-yl)amino)-2,3-dihydrobenzo[b][1,4]dioxin-5-yl)(morpholino)methanone]	301 to 1000 nM	< 100 nM	301 to 1000 nM

Other lines, results leading:

IC50 (human GST-CLK1)	IC50 (LRRK2 (G2019S))	IC50 (human GST-DYRK1A)	SMILES
301 to 1000 nM	< 100 nM	301 to 1000 nM	COc1cc(S(=O)(=O)N2CCC(N3CCOCC3)CC2)ccc1Nc1nc(NC2CC2)c2cc[nH]c2n1 [Example 54, N^4-cyclopropyl-N^2-(2-methoxy-4-((4-morpholinopiperidin-1-yl)sulfonyl)phenyl)-7H-pyrrolo[2,3-d]pyrimidine-2,4-diamine]
301 to 1000 nM	< 100 nM	301 to 1000 nM	COc1cc(S(C)(=O)=O)ccc1Nc1nc(NC2CC2)c2cc[nH]c2n1 [Example 55, N^4-cyclopropyl-N^2-(2-methoxy-4-(methylsulfonyl)phenyl)-7H-pyrrolo[2,3-d]pyrimidine-2,4-diamine]
301 to 1000 nM	< 100 nM	301 to 1000 nM	CCCNc1nc(Nc2ccc(S(C)(=O)=O)cc2OC)nc2[nH]ccc12 [Example 9, N^2-(2-methoxy-4-(methylsulfonyl)phenyl)-N^4-propyl-7H-pyrrolo[2,3-d]pyrimidine-2,4-diamine 2,2,2-trifluoroacetate]
301 to 1000 nM	< 100 nM	301 to 1000 nM	CCCNc1nc(Nc2ccc(S(=O)(=O)N3CCC(N4CCOCC4)CC3)cc2OC)nc2[nH]ccc12 [Example 8, N^2-(2-methoxy-4-((4-morpholinopiperidin-1-yl)sulfonyl)phenyl)-N^4-propyl-7H-pyrrolo[2,3-d]pyrimidine-2,4-diamine 2,2,2-trifluoroacetate]
301 to 1000 nM	< 100 nM	301 to 1000 nM	COc1cc(P(C)(C)=O)ccc1Nc1nc(NC2CCCC2)c2c(C(F)(F)F)c[nH]c2n1 [Example 387, (4-((4-(cyclo-pentylamino)-5-(trifluoromethyl)-7H-pyrrolo[2,3-d]pyrimidin-2-yl)amino)-3-methoxy-phenyl)di-methylphosphine oxide]
301 to 1000 nM	< 100 nM	301 to 1000 nM	COc1cc(S(=O)(=O)N2CCC(N3CCOCC3)CC2)ccc1Nc1nc(NCC2CCCC2)c2cc[nH]c2n1 [Example 41, N^4-(cyclopentylmethyl)-N^2-(2-methoxy-4-((4-morpholinopiperidin-1-yl)sulfonyl)phenyl)-7H-pyrrolo[2,3-d]pyrimidine-2,4-diamine 2,2,2-trifluoroacetate]
301 to 1000 nM	< 100 nM	301 to 1000 nM	COc1cc(S(=O)(=O)N2CCOCC2)ccc1Nc1nc(NC2CCOCC2)c2c(C#N)c[nH]c2n1 [Example 76, 2-((2-methoxy-4-(morpholinosulfonyl)phenyl)amino)-4-((tetrahydro-2H-pyran-4-yl)amino)-7H-pyrrolo[2,3-d]pyrimidine-5-carbonitrile]
301 to 1000 nM	< 100 nM	301 to 1000 nM	COc1cc(S(=O)(=O)N2CCC(N3CCOCC3)CC2)ccc1Nc1nc(NCC(C)C)c2cc[nH]c2n1 [Example 11, N^4-isobutyl-N^2-(2-methoxy-4-((4-morpholinopiperidin-1-yl)sulfonyl)phenyl)-7H-pyrrolo[2,3-d]pyrimidine-2,4-diamine]
301 to 1000 nM	< 100 nM	301 to 1000 nM	COc1cc(S(C)(=O)=O)ccc1Nc1nc(N[C@@H]2CCOC2)c2c(C(F)(F)F)c[nH]c2n1 [Example 210, (R)-N^2-(2-methoxy-4-(methylsulfonyl)phenyl)-N^4-(tetrahydrofuran-3-yl)-5-(trifluoromethyl)-7H-pyrrolo[2,3-d]pyrimidine-2,4-diamine]
301 to 1000 nM	< 100 nM	301 to 1000 nM	COc1cc(S(=O)(=O)N2CCC(N3CCOCC3)CC2)ccc1Nc1nc(NCC2CC2)c2cc[nH]c2n1 [Example 32, N^4-(cyclopropylmethyl)-N^2-(2-methoxy-4-((4-morpholinopiperidin-1-yl)sulfonyl)phenyl)-7H-pyrrolo[2,3-d]pyrimidine-2,4-diamine]
301 to 1000 nM	< 100 nM	301 to 1000 nM	COc1cc(S(C)(=O)=O)ccc1Nc1nc(NC2CCOCC2)c2cc[nH]c2n1 [Example 30, N^2-(2-methoxy-4-(methylsulfonyl)phenyl)-N^4-(tetrahydro-2H-pyran-4-yl)-7H-pyrrolo[2,3-d]pyrimidine-2,4-diamine 2,2,2-trifluoroacetate]
301 to 1000 nM	< 100 nM	301 to 1000 nM	COc1cc(S(C)(=O)=O)ccc1Nc1nc(NCC2CC2)c2cc[nH]c2n1 [Example 33, N^4-(cyclopropylmethyl)-N^2-(2-methoxy-4-(methylsulfonyl)phenyl)-7H-pyrrolo[2,3-d]pyrimidine-2,4-diamine]

Reference: US20230066011A1, “PYRROLOPYRIMIDINE DERIVATIVE, AND PHARMACEUTICAL COMPOSITION FOR PREVENTING OR TREATING PROTEIN KINASE-RELATED DISEASE COMPRISING SAME AS ACTIVE INGREDIENT” (VORONOI CO., LTD., priority 2019, published 2023)
